This assay is filed under the species Homo sapiens. In words: Inhibitory activity against adenosine diphosphate (ADP)-induced platelet aggregation. The class given is functional, organism-based.

Where only a bound is given, the exact number is not on record here.

One may read the IC50 as the concentration that gives 50% inhibition. Higher therefore signals a need for much substance. With `Cc1ccc(C(=O)N[C@@H](Cc2ccc(OCC(=O)Nc3ccc(C(=N)N)cc3)cc2)C(=O)O)cc1`, 0.25 µM corresponded to half-maximal inhibition (IC50).
Take `Cc1ccccc1OCC(=O)N[C@@H](Cc1ccc(OCC(=O)Nc2ccc(C(=N)N)cc2)cc1)C(=O)O`: inhibition was half-maximal at 0.61 µM (IC50).
Under `N=C(N)c1ccc(OCCCOc2ccc(C[C@H](NC(=O)c3ccccc3)C(=O)O)cc2)cc1` stands > 1 µM.
The same measure for `N=C(N)c1ccc(NC(=O)COc2ccc(C[C@H](NC(=O)c3ccccc3)C(=O)O)cc2)cc1`: 0.27 µM; for `N=C(N)c1ccc(OCCOc2ccc(C[C@H](NC(=O)c3ccccc3)C(=O)O)cc2)cc1`: 0.74 µM.
The same measure for `N=C(N)c1ccc(OCCCCOc2ccc(C[C@H](NC(=O)c3ccccc3)C(=O)O)cc2)cc1`: > 1 µM; for `N=C(N)c1ccc(OCCOc2ccc(C[C@H](NC(=O)c3ccco3)C(=O)O)cc2)cc1`: 0.71 µM; for `N=C(N)c1ccc(NC(=O)COc2ccc(C[C@H](NC(=O)c3ccc4ccccc4c3)C(=O)O)cc2)cc1`: 0.51 µM.

The values above are taken from ChEMBL document CHEMBL1131785, “Design and synthesis of amidino-tyrosine derivatives as non-peptide fibrinogen receptor antagonists” (Bioorg Med Chem Lett, 1999).
